# Tests used:
# CCDC6-RET-BaF3 = target: T1, CCDC6-RET-BaF3 (Homo sapiens, UniProt P07949); test: Growth inhibition of CCDC6-RET-BaF3 cells stably transfected with kinase (MTS); assay type: cell-based; details: 48 h, read-out: CCDC6-RET (IC50/nM)
# T1 construct: fused on or other part: Q16204 (Coiled-coil domain-containing protein 6)
# Protocol: (§1) Growth inhibitory activity of compounds on cell lines stably transfected with kinase
# (§2) The activity of compounds against kinase RET is evaluated by their effect of inhibiting growth of cell lines stably transfected with kinase CCDC6-RET-BaF3, KIF5B-RET-BaF3, and wild-type BaF3 (Proc. Natl. Acad. Sci. USA., 2006, 103, 3153-8.). The growth of the cell lines stably transfected with kinase CCDC6-RET-BaF3, KIF5B-RET-BaF3 depends on their kinase activity. If a compound can inhibit the activity of the kinase RET per se or the activity of the RET signaling pathway, the compound can inhibit the growth of BaF3 cells stably transfected with kinase. […] Therefore, a larger ratio between IC50 of a compound to wild-type BaF3 and IC50 of the compound to the cell lines stably transfected with kinase CCDC6-RET-BaF3, KIF5B-RET-BaF3 indicates better targeting.
# (§3) The specific test method is given as follows:
# (§4) 1) Medium: DMEM (Dulbecco's modified eagle medium) or RPMI 1640 (containing 10% fetal bovine serum, 100 μg/mL ampicillin, 100 μg/mL streptomycin).
# (§5) 2) Reagents: MTS reaction solution (containing 2 mg/mL of MTS [3-(4,5-dimethylthiazol-2-yl)-5-(3-carboxymethoxyphenyl)-2-(4-sulfophenyl)-2H-tetrazolium, inner Salt]; 100 μg/mL PES (phenazine […])).
# (§6) 3) Compound test: cells stably transfected with kinase (CCDC6-RET-BaF3, KIF5B-RET-BaF3) or wild-type BaF3 cells (2×10^4 cells/well) were incubated into a 96-well culture plate, the volume of cell culture fluid was 90 μL, and then 10 μL of the compound at each gradient concentration was added (the highest concentration was 10 μM, which was diluted stepwise by ⅓, and 8 concentration points were set in total; the system contained 0.1% DMSO (dimethyl sulfoxide)). The cell plate with uniformly mixed compound was cultured in a cell culture incubator (37° C.; 5% CO2) for 48 h, then 20 μL of MTS reaction solution was added, uniformly mixed and incubated in the cell culture incubator (37° C.; 5% CO2) for 1-4 hr, OD values at 490 nm were measured by a microplate reader (VARIOSKAN FLASH, Thermo). Three parallels were set in each group of experiments, with 0.1% (a final concentration) DMSO as a negative control, and a medium without cells or compounds as a blank control. The cell growth inhibition rate was calculated by the following formula: Cell growth inhibition rate %=1−(ODexperimental group−ODblank group)/(ODnegative group−ODblank group)×100%
# (§7) 4) IC50 calculation: The semi-inhibitory concentration of the compound acting on cell growth was calculated using GradPad Prism 5 software according to the measured cell growth inhibition rate.
# KIF5B-RET-BaF3 = target: T2, KIF5B-RET-BaF3 (Homo sapiens, UniProt P07949); test: Growth inhibition of KIF5B-RET-BaF3 cells stably transfected with kinase (MTS); assay type: cell-based; details: 48 h, read-out: KIF5B-RET (IC50/nM)
# T2 construct: fused on or other part: P33176 (Kinesin-1 heavy chain)
# Protocol: as §1, §2, §3, §4, §5, §6, §7
# T1 sequence (P07949 whole entry, change not shown, the tested form may be a part): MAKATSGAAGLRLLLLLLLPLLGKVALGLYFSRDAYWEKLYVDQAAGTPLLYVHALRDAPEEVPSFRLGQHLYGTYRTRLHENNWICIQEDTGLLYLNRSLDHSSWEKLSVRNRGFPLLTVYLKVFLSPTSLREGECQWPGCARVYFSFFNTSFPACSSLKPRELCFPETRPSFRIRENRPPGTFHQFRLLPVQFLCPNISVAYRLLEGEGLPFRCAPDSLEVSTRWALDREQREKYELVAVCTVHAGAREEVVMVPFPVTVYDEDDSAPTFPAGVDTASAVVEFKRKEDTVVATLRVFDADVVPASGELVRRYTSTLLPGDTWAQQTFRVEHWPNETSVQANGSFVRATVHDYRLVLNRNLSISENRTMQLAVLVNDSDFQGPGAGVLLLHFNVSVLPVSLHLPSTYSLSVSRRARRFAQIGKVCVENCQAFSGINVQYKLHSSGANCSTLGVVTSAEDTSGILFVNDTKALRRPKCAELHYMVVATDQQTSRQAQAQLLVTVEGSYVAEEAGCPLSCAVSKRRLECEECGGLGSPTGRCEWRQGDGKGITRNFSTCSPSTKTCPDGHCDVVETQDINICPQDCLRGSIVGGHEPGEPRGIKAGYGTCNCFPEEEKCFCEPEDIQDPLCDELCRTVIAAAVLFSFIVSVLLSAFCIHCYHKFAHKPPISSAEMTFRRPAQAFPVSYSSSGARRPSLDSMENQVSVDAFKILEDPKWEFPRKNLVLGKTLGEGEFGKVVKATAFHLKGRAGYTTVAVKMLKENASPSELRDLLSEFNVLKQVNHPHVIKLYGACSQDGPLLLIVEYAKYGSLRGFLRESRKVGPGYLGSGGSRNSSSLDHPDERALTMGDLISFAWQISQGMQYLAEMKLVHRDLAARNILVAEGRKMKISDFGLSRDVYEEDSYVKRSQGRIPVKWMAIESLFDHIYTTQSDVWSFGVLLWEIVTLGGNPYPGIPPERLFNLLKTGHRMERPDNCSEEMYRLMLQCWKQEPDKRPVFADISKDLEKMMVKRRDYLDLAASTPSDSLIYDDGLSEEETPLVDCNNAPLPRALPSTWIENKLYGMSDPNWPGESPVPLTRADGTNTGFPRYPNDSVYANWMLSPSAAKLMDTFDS
# T2 sequence (P07949 whole entry, change not shown, the tested form may be a part): as above
Structure (SMILES),GI50 (CCDC6-RET-BaF3),GI50 (KIF5B-RET-BaF3)
Cc1ccc(Oc2nc(-c3ccncc3)nc3c2ncn3C)cc1C(=O)Nc1cccc(C(F)(F)F)c1 [I-f-2],4850 nM,8120 nM
Cc1ccc(Oc2nc(-c3ccncc3)nc3c2ncn3C)cc1NC(=O)c1ccc(CN2CCN(C)CC2)c(C(F)(F)F)c1 [I-j-1],0.741 nM,2.74 nM
Cc1ccc(Oc2nc(-c3ccccc3)nc3c2ncn3C)cc1C(=O)Nc1ccc(CN2CCN(C)CC2)c(C(F)(F)F)c1 [I-n-4],2700 nM,2370 nM
Cc1ccc(Oc2nc(-c3cccc(Cl)c3)nc3c2ncn3C)cc1C(=O)Nc1ccc(CN2CCN(C)CC2)c(C(F)(F)F)c1 [I-n-5],1540 nM,1510 nM
Cc1ccc(Oc2nc(-c3ccc(Cl)cc3)nc3c2ncn3C)cc1C(=O)Nc1ccc(CN2CCN(C)CC2)c(C(F)(F)F)c1 [I-n-6],1780 nM,1380 nM
Cc1ccc(Oc2nc(-c3ccc(O)cc3)nc3c2ncn3C)cc1C(=O)Nc1ccc(CN2CCN(C)CC2)c(C(F)(F)F)c1 [I-n-8],1210 nM,1330 nM
Cc1ccc(Oc2nc(-c3cccc(N)c3)nc3c2ncn3C)cc1C(=O)Nc1ccc(CN2CCN(C)CC2)c(C(F)(F)F)c1 [I-n-9],1550 nM,1480 nM
Cc1ccc(Oc2nc(-c3ccc(N)cc3)nc3c2ncn3C)cc1C(=O)Nc1ccc(CN2CCN(C)CC2)c(C(F)(F)F)c1 [I-n-10],1400 nM,1400 nM
Cc1ccc(Oc2nc(-c3ccoc3)nc3c2ncn3C)cc1C(=O)Nc1ccc(CN2CCN(C)CC2)c(C(F)(F)F)c1 [I-n-11],1200 nM,1960 nM
Cc1ccc(Oc2ncnc3c2ncn3C)cc1C(=O)Nc1ccc(CN2CCN(C)CC2)c(C(F)(F)F)c1 [I-n-13],3010 nM,4850 nM
Cc1ccc(Oc2nc(-c3ccncc3)nc3c2ncn3C(C)C)cc1C(=O)Nc1ccc(CN2CCN(C)CC2)c(C(F)(F)F)c1 [I-n-14],163 nM,47 nM
CN1CCN(Cc2ccc(NC(=O)c3cc(Oc4nc(-c5cccnc5)nc5c4ncn5C)ccc3Cl)cc2C(F)(F)F)CC1 [I-o-1],1470 nM,1390 nM
CN1CCN(Cc2ccc(NC(=O)c3cc(Oc4nc(-c5ccccc5)nc5c4ncn5C)ccc3Cl)cc2C(F)(F)F)CC1 [I-o-3],1380 nM,1380 nM
CN1CCN(Cc2ccc(NC(=O)c3cc(Oc4nc(-c5cccc(N)c5)nc5c4ncn5C)ccc3Cl)cc2C(F)(F)F)CC1 [I-o-8],1590 nM,1490 nM
CN1CCN(Cc2ccc(C(=O)Nc3cccc(Oc4nc(-c5cccnc5)nc5c4cnn5C)c3)cc2C(F)(F)F)CC1 [II-h-1],1110 nM,953 nM
CN1CCN(Cc2ccc(C(=O)Nc3cccc(Oc4nc(-c5ccncc5)nc5c4cnn5C)c3)cc2C(F)(F)F)CC1 [II-h-2],140 nM,106 nM
Cc1ccc(NC(=O)c2ccc(CN3CCN(C)CC3)c(C(F)(F)F)c2)cc1Oc1nc(-c2ccncc2)nc2c1cnn2C [II-i-2],617 nM,469 nM
Cc1ccc(Oc2nc(-c3ccncc3)nc3c2cnn3C)cc1NC(=O)c1ccc(CN2CCN(C)CC2)c(C(F)(F)F)c1 [II-j-2],13.1 nM,
CC(=O)NCC1CCN(c2ccc(NC(=O)c3ccc(C)c(Oc4nc(-c5ccncc5)nc5ccn(C)c45)c3)cc2C(F)(F)F)CC1 [III-v-3],23800 nM,
CCC(=O)NCC1CCN(c2ccc(NC(=O)c3ccc(C)c(Oc4nc(-c5cccnc5)nc5ccn(C)c45)c3)cc2C(F)(F)F)CC1 [III-v-4],< 4 nM,
CCC(=O)NCC1CCN(c2ccc(NC(=O)c3ccc(C)c(Oc4nc(-c5cccnc5)nc5ccn(C)c45)c3)cc2C(F)(F)F)CC1 [III-v-5],< 4 nM,
CC(=O)NCC1CCN(c2ccc(NC(=O)c3ccc(C)c(Oc4nc(-c5cccnc5)nc5ccn(C)c45)c3)cc2C(F)(F)F)CC1 [III-v-6],< 4 nM,
CCS(=O)(=O)NC1CCN(c2ccc(NC(=O)c3ccc(C)c(Oc4nc(-c5cccnc5)nc5ccn(C)c45)c3)cc2C(F)(F)F)CC1 [III-v-10],< 4 nM,
CCC(=O)NCC1CCN(c2ccc(NC(=O)c3ccc(C)c(Oc4nc(-c5ccncc5)nc5cc[nH]c45)c3)cc2C(F)(F)F)CC1 [III-v-13],18300 nM,

# Further lines, results first:
GI50 (CCDC6-RET-BaF3),GI50 (KIF5B-RET-BaF3),Structure (SMILES)
4930 nM,2290 nM,CC(C)n1cnc2c(Oc3cccc(NC(=O)c4ccc(CN5CCN(C)CC5)c(C(F)(F)F)c4)c3)nc(-c3ccncc3)nc21 [I-h-1]
710 nM,1300 nM,Cc1ccc(C(=O)Nc2ccc(CN3CCN(C)CC3)c(C(F)(F)F)c2)cc1Oc1nc(-c2cccnc2)nc2c1ncn2C [I-m-2]
447 nM,1050 nM,Cc1ccc(C(=O)Nc2ccc(CN3CCN(C)CC3)c(C(F)(F)F)c2)cc1Oc1nc(-c2ccncc2)nc2c1ncn2C [I-m-3]
1560 nM,1450 nM,Cc1ccc(Oc2nc(-c3cccc(O)c3)nc3c2ncn3C)cc1C(=O)Nc1ccc(CN2CCN(C)CC2)c(C(F)(F)F)c1 [I-n-7]
2030 nM,1860 nM,Cc1ccc(Oc2nc(-c3ccsc3)nc3c2ncn3C)cc1C(=O)Nc1ccc(CN2CCN(C)CC2)c(C(F)(F)F)c1 [I-n-12]
20.6 nM,3.15 nM,CN1CCN(Cc2ccc(NC(=O)c3cc(Oc4nc(-c5ccncc5)nc5c4ncn5C)ccc3Cl)cc2C(F)(F)F)CC1 [I-o-2]
1400 nM,1410 nM,CN1CCN(Cc2ccc(NC(=O)c3cc(Oc4nc(-c5cccc(Cl)c5)nc5c4ncn5C)ccc3Cl)cc2C(F)(F)F)CC1 [I-o-4]
1320 nM,1390 nM,CN1CCN(Cc2ccc(NC(=O)c3cc(Oc4nc(-c5ccc(Cl)cc5)nc5c4ncn5C)ccc3Cl)cc2C(F)(F)F)CC1 [I-o-5]
1290 nM,1360 nM,CN1CCN(Cc2ccc(NC(=O)c3cc(Oc4nc(-c5cccc(O)c5)nc5c4ncn5C)ccc3Cl)cc2C(F)(F)F)CC1 [I-o-6]
903 nM,1210 nM,CN1CCN(Cc2ccc(NC(=O)c3cc(Oc4nc(-c5ccc(O)cc5)nc5c4ncn5C)ccc3Cl)cc2C(F)(F)F)CC1 [I-o-7]
1390 nM,1500 nM,CN1CCN(Cc2ccc(NC(=O)c3cc(Oc4nc(-c5ccc(N)cc5)nc5c4ncn5C)ccc3Cl)cc2C(F)(F)F)CC1 [I-o-9]
1370 nM,1910 nM,CN1CCN(Cc2ccc(NC(=O)c3cc(Oc4nc(-c5ccoc5)nc5c4ncn5C)ccc3Cl)cc2C(F)(F)F)CC1 [I-o-10]
1680 nM,1560 nM,CN1CCN(Cc2ccc(NC(=O)c3cc(Oc4nc(-c5ccsc5)nc5c4ncn5C)ccc3Cl)cc2C(F)(F)F)CC1 [I-o-11]
55.2 nM,154 nM,CC(C)n1cnc2c(Oc3ccc(Cl)c(C(=O)Nc4ccc(CN5CCN(C)CC5)c(C(F)(F)F)c4)c3)nc(-c3ccncc3)nc21 [I-o-12]
1970 nM,2240 nM,Cc1ccc(C(=O)Nc2cccc(C(F)(F)F)c2)cc1Oc1nc(-c2cccnc2)nc2c1cnn2C [II-e-1]
477 nM,411 nM,Cc1ccc(NC(=O)c2ccc(CN3CCN(C)CC3)c(C(F)(F)F)c2)cc1Oc1nc(-c2cccnc2)nc2c1cnn2C [II-i-1]
> 10000 nM,,CCn1ncc2c(Oc3cc(C(=O)Nc4ccc(CN5CCN(C)CC5)c(C(F)(F)F)c4)ccc3C)nc(-c3ccncc3)nc21 [II-m-22]
< 4 nM,,CC(=O)NC1CCN(c2ccc(NC(=O)c3ccc(C)c(Oc4nc(-c5cccnc5)nc5ccn(C)c45)c3)cc2C(F)(F)F)CC1 [III-v-2]
148000 nM,,CCC(=O)NC1CCN(c2ccc(NC(=O)c3ccc(C)c(Oc4nc(-c5cccnc5)nc5ccn(C)c45)c3)cc2C(F)(F)F)CC1 [III-v-7]

# — patent US11319322B2, “Substituted aryl ether compound, preparation method thereof, pharmaceutical composition and use thereof” (Xiamen University, priority 2017, dated 2022)
